Measured values as given in patent US8269026B2, “Lupane derivatives useful for treating HIV” (priority 2008, dated 2012).
Structures can show the parent of a compound that is named as a salt.

The compounds below were run on HIV-1 (HIVIIIB) replication in MT2 cell line (assay: HIV-1 replication in MT2 cell line with and without 30% human serum (viral RT activity in supernatant)). Details: Human immunodeficiency virus 1, MT2 cells, with 30% human serum, average IC50 if tested more than once, read-out: MT2 (HIVIIIB) with HS 30% IC50 range.
Format: cell-based
Description: HIV-1 Replication in MT2 cell line with and without 30% human serum: The cells are infected at a Multiciplicity of Infection (MOI) of 0.5 for 3 h and then washed twice with complete media to remove residual virus. Cells are then resuspended at 0.5×10^6/ml in complete medium (RPMI, 10% FBS, 1% sodium pyruvate), and seeded into 96-well plates (6.25×10^4/well). The cells are cultured in the presence or absence of various concentrations of test compounds in serial dilutions for 3 days at 37° C. The test compounds are serially diluted in complete medium supplemented or not with 30% human serum. After 3 days, 100 μL of cultured medium with cells are replaced with 120 μL of freshly diluted test compounds in complete medium containing or not 30% Human serum. The level of HIV-1 replication is determined at days 5 after infection by the presence of viral RT activity in harvested supernatant fluid. The IC50 and IC90 values for the virus replication are determined by using GRAPHPAD PRISM software.
The IC50 of the compounds tested in accordance with the HIV replication activity assay MT2 (HIVIIIB) are represented in Table 1.

Row | SMILES | IC50 [nM]
1 | CC(C)C1=C2C3CCC4[C@@]5(C)CC[C@H](OC(=O)CC(C)(C)C(=O)O)C(C)(C)C5CC[C@@]4(C)[C@]3(C)CC[C@@]2(NC(=O)N[C@@H](C)c2ccccc2)CC1=O (stereo partly drawn) [17-61, 3β-O-(3′,3′-Dimethylsuccinyl)-17β-[N′-((S)-1-phenyl-ethyl)-ureido]-21-oxolup-18-ene] | < 199
2 | CC(C)C1=C2[C@H]3CC[C@@H]4[C@@]5(C)CC[C@H](OC(=O)CC(C)(C)C(=O)O)C(C)(C)[C@@H]5CC[C@@]4(C)[C@]3(C)CC[C@@]2(NC(=O)C2CCN(C(=O)OC(C)(C)C)CC2)CC1=O [19-5, 3β-O-(3′,3′-Dimethylsuccinyl)-17β-(1-tert-butyloxycarbonylpiperidine-4-amido)-21-oxolup-18-ene] | < 199
3 | CC(C)C1=C2C3CCC4[C@@]5(C)CC[C@H](OC(=O)CC(C)(C)C(=O)O)C(C)(C)C5CC[C@@]4(C)[C@]3(C)CC[C@@]2(NC(=O)OC[C@@H]2CCCN2C)CC1=O (stereo partly drawn) [20-20, 3β-O-(3′,3′-Dimethylsuccinyl)-17β-((S)1-methylpyrrolidine-2-methoxycarbonylamino)-21-oxolup-18-ene] | < 199
4 | CC(C)C1=C2C3CCC4[C@@]5(C)CC[C@H](OC(=O)CC(C)(C)C(=O)O)C(C)(C)C5CC[C@@]4(C)[C@]3(C)CC[C@@]2(NC(=O)N(C)C)CC1=O (stereo partly drawn) [17-48, 3β-O-(3′,3′-Dimethylsuccinyl)-17β-[N′,N′-dimethyl-ureido]-21-oxolup-18-ene] | < 199
5 | CC(C)C1=C2C3CCC4[C@@]5(C)CC[C@H](OC(=O)CC(C)(C)C(=O)O)C(C)(C)C5CC[C@@]4(C)[C@]3(C)CC[C@@]2(NC(=O)c2nccn2C)CC1=O (stereo partly drawn) [19-26, 3β-O-(3′,3′-Dimethylsuccinyl)-17β-(1-methyl-1H-imidazole-2-amido)-21-oxolup-18-ene] | < 199
6 | CC(C)C(=O)N[C@@]12CC[C@]3(C)C(CCC4[C@@]5(C)CC[C@H](OC(=O)CC(C)(C)C(=O)O)C(C)(C)C5CC[C@]43C)C1=C(C(C)C)C(=O)C2 (stereo partly drawn) [19-31, 3β-O-(3′,3′-Dimethylsuccinyl)-17β-isopropylamido-21-oxolup-18-ene] | < 199
7 | CC(C)C1=C2[C@H]3CC[C@@H]4[C@@]5(C)CC[C@H](OC(=O)CC(C)(C)C(=O)O)C(C)(C)[C@@H]5CC[C@@]4(C)[C@]3(C)CC[C@@]2(NC(=O)NCc2nncn2C)CC1=O [17-74, 3β-O-(3′,3′-Dimethylsuccinyl)-17β-[N′-(4-methyl-4H-[1,2,4]triazol-3-yl-methyl)-ureido]-21-oxolup-18-ene] | > 1000
8 | CC(C)C1=C2C3CCC4[C@@]5(C)CC[C@H](OC(=O)CC(C)(C)C(=O)O)C(C)(C)C5CC[C@@]4(C)[C@]3(C)CC[C@@]2(NC(=O)c2ccccc2C(=O)O)CC1=O (stereo partly drawn) [19-61, 3β-O-(3′,3′-Dimethylsuccinyl)-17β-(2-carboxy-benzamido)-21-oxolup-18-ene] | < 199
9 | CC(C)C1=C2[C@H]3CC[C@@H]4[C@@]5(C)CC[C@H](OC(=O)CC(C)(C)C(=O)O)C(C)(C)[C@@H]5CC[C@@]4(C)[C@]3(C)CC[C@@]2(NC(=O)CCCN2CCCC2)CC1=O [19-39, 3β-O-(3′,3′-Dimethylsuccinyl)-17β-(4-pyrrolidin-1-yl-butyramido)-21-oxolup-18-ene] | < 199
10 | CC(C)C1=C2C3CCC4[C@@]5(C)CC[C@H](OC(=O)CC(C)(C)C(=O)O)C(C)(C)C5CC[C@@]4(C)[C@]3(C)CC[C@@]2(NC(=O)c2ccsc2)CC1=O (stereo partly drawn) [19-78, 3β-O-(3′,3′-Dimethylsuccinyl)-17β-(thiophene-3-amido)-21-oxolup-18-ene] | < 199
11 | Cc1nnc(NC(=O)N[C@@]23CC[C@]4(C)C(CCC5[C@@]6(C)CC[C@H](OC(=O)CC(C)(C)C(=O)O)C(C)(C)C6CC[C@]54C)C2=C(C(C)C)C(=O)C3)o1 (stereo partly drawn) [17-19, 3β-O-(3′,3′-Dimethylsuccinyl)-17β-(N′-5-methyl-[1,3,4]oxadiazol-2-yl-ureido)-21-oxolup-18-ene] | < 199
12 | CC(C)C1=C2C3CCC4[C@@]5(C)CC[C@H](OC(=O)CC(C)(C)C(=O)O)C(C)(C)C5CC[C@@]4(C)[C@]3(C)CC[C@@]2(NC(=O)Cc2ccccc2)CC1=O (stereo partly drawn) [19-29, 3β-O-(3′,3′-Dimethylsuccinyl)-17β-phenylacetamido-21-oxolup-18-ene] | < 199
13 | CC(C)C1=C2C3CCC4[C@@]5(C)CC[C@H](OC(=O)CC(C)(C)C(=O)O)C(C)(C)C5CC[C@@]4(C)[C@]3(C)CC[C@@]2(NC(=O)OCCN2CCCC2)CC1=O (stereo partly drawn) [20-23, 3β-O-(3′,3′-Dimethylsuccinyl)-17β-(2-pyrrolidin-1-ethoxycarbonylamino)-21-oxolup-18-ene] | < 199
14 | CC(C)C1=C2[C@H]3CC[C@@H]4[C@@]5(C)CC[C@H](OC(=O)CC(C)(C)C(=O)O)C(C)(C)C5CC[C@@]4(C)[C@]3(C)CC[C@@]2(NC(=O)Nc2cnn(C)c2)CC1=O (stereo partly drawn) [17-37, 3β-O-(3′,3′-Dimethylsuccinyl)-17β-[N′-(1-methyl-1H-pyrazol-4-yl)ureido]-21-oxolup-18-ene] | < 199
15 | CC(C)C1=C2C3CCC4[C@@]5(C)CC[C@H](OC(=O)CC(C)(C)C(=O)O)C(C)(C)C5CC[C@@]4(C)[C@]3(C)CC[C@@]2(NC(=O)OC2CCNCC2)CC1=O (stereo partly drawn) [20-16, 3β-O-(3′,3′-Dimethylsuccinyl)-17β-(piperidine-4-oxycarbonylamino)-21-oxolup-18-ene] | < 199
16 | CC(C)C1=C2[C@H]3CC[C@@H]4[C@@]5(C)CC[C@H](OC(=O)CC(C)(C)C(=O)O)C(C)(C)[C@@H]5CC[C@@]4(C)[C@]3(C)CC[C@@]2(N)CC1=O [15-1, 3β-O-(3′,3′-Dimethylsuccinyl)-17β-amino-21-oxolup-18-ene hydrochloride] | < 199
17 | CC(C)C1=C2C3CCC4[C@@]5(C)CC[C@H](OC(=O)CC(C)(C)C(=O)O)C(C)(C)C5CC[C@@]4(C)[C@]3(C)CC[C@@]2(NC(=O)N2CCC(N(C)C(=O)OC(C)(C)C)CC2)CC1=O (stereo partly drawn) [17-36, 3β-O-(3′,3′-Dimethylsuccinyl)-17β-[(4-(tert-butyloxycarbonyl-methyl-amino)-piperidine-1-carbonyl)-amino]-21-oxolup-18-ene] | < 199
18 | CC(C)C1=C2C3CCC4[C@@]5(C)CC[C@H](OC(=O)CC(C)(C)C(=O)O)C(C)(C)C5CC[C@@]4(C)[C@]3(C)CC[C@@]2(NC(=O)N[C@@H](C)C2CCCCC2)CC1=O (stereo partly drawn) [17-54, 3β-O-(3′,3′-Dimethylsuccinyl)-17β-[N′-((S)-1-cyclohexyl-ethyl)ureido]-21-oxolup-18-ene] | < 199
19 | CC(C)C1=C2C3CCC4[C@@]5(C)CC[C@H](OC(=O)CC(C)(C)C(=O)O)C(C)(C)C5CC[C@@]4(C)[C@]3(C)CC[C@@]2(NC(=O)c2nnc(C3CC3)o2)CC1=O (stereo partly drawn) [19-62, 3β-O-(3′,3′-Dimethylsuccinyl)-17β-(5-cyclopropyl-[1,3,4]oxadiazole-2-amido)-21-oxolup-18-ene] | < 199
20 | CC(C)C1=C2[C@H]3CC[C@@H]4[C@@]5(C)CC[C@H](OC(=O)CC(C)(C)C(=O)O)C(C)(C)[C@@H]5CC[C@@]4(C)[C@]3(C)CC[C@@]2(NC(=O)[C@@H]2CCCN2C)CC1=O [19-42] | < 199
21 | CC(C)C1=C2[C@H]3CC[C@@H]4[C@@]5(C)CC[C@H](OC(=O)CC(C)(C)C(=O)O)C(C)(C)[C@@H]5CC[C@@]4(C)[C@]3(C)CC[C@@]2(NS(C)(=O)=O)CC1=O [18-1, 3β-O-(3′,3′-Dimethylsuccinyl)-17β-methylsulfonylamino-21-oxolup-18-ene] | < 199
22 | CC(C)C1=C2C3CCC4[C@@]5(C)CC[C@H](OC(=O)CC(C)(C)C(=O)O)C(C)(C)C5CC[C@@]4(C)[C@]3(C)CC[C@@]2(NC(=O)c2cn[nH]c2)CC1=O (stereo partly drawn) [19-82, 3β-O-(3′,3′-Dimethylsuccinyl)-17β-(1H-pyrazole-4-amido)-21-oxolup-18-ene] | < 199
23 | CC(C)C1=C2[C@H]3CC[C@@H]4[C@@]5(C)CC[C@H](OC(=O)CC(C)(C)C(=O)O)C(C)(C)[C@@H]5CC[C@@]4(C)[C@]3(C)CC[C@@]2(NC(=O)C2CCN(C)CC2)CC1=O [19-36, 3β-O-(3′,3′-Dimethylsuccinyl)-17β-(1-methylpiperidine-4-amido)-21-oxolup-18-ene] | < 199
24 | CC(C)C1=C2[C@H]3CC[C@@H]4[C@@]5(C)CC[C@H](OC(=O)CC(C)(C)C(=O)O)C(C)(C)[C@@H]5CC[C@@]4(C)[C@]3(C)CC[C@@]2(NC(=O)N2CCN(C)CC2)CC1=O [17-16, 3β-O-(3′,3′-Dimethylsuccinyl)-17β-[(4-methyl-piperazine-1-carbonyl)-amino]-21-oxolup-18-ene] | < 199
25 | CC(C)C1=C2C3CCC4[C@@]5(C)CC[C@H](OC(=O)CC(C)(C)C(=O)O)C(C)(C)C5CC[C@@]4(C)[C@]3(C)CC[C@@]2(NC(=O)c2cncnc2)CC1=O (stereo partly drawn) [19-23, 3β-O-(3′,3′-Dimethylsuccinyl)-17β-(pyrimidine-5-amido)-21-oxolup-18-ene] | < 199
26 | CC(C)C1=C2C3CCC4[C@@]5(C)CC[C@H](OC(=O)CC(C)(C)C(=O)O)C(C)(C)C5CC[C@@]4(C)[C@]3(C)CC[C@@]2(NC(=O)OCC2CCN(C)C2)CC1=O (stereo partly drawn) [20-21, 3β-O-(3′,3′-Dimethylsuccinyl)-17β-(1-methylpyrrolidine-3-methoxycarbonylamino)-21-oxolup-18-ene] | < 199
27 | Cc1ccc(C(=O)N[C@@]23CC[C@]4(C)C(CCC5[C@@]6(C)CC[C@H](OC(=O)CC(C)(C)C(=O)O)C(C)(C)C6CC[C@]54C)C2=C(C(C)C)C(=O)C3)s1 (stereo partly drawn) [19-77, 3β-O-(3′,3′-Dimethylsuccinyl)-17β-(5-methyl-thiophene-2-amido)-21-oxolup-18-ene] | < 199

Same assay, conditions: Human immunodeficiency virus 1, MT2 cells, without human serum, average IC50 if tested more than once, read-out: MT2 (HIVIIIB) IC50 range

Row | SMILES | IC50 [nM]
28 | CC(C)C1=C2[C@H]3CC[C@@H]4[C@@]5(C)CC[C@H](OC(=O)CC(C)(C)C(=O)O)C(C)(C)[C@@H]5CC[C@@]4(C)[C@]3(C)CC[C@@]2(NC(=O)C2CCN(C(=O)OC(C)(C)C)CC2)CC1=O [19-5, 3β-O-(3′,3′-Dimethylsuccinyl)-17β-(1-tert-butyloxycarbonylpiperidine-4-amido)-21-oxolup-18-ene] | < 199
29 | CC(C)C1=C2[C@H]3CC[C@@H]4[C@@]5(C)CC[C@H](OC(=O)CC(C)(C)C(=O)O)C(C)(C)[C@@H]5CC[C@@]4(C)[C@]3(C)CC[C@@]2(N)CC1=O [15-1, 3β-O-(3′,3′-Dimethylsuccinyl)-17β-amino-21-oxolup-18-ene hydrochloride] | < 199
30 | CC(C)C1=C2[C@H]3CC[C@@H]4[C@@]5(C)CC[C@H](OC(=O)CC(C)(C)C(=O)O)C(C)(C)[C@@H]5CC[C@@]4(C)[C@]3(C)CC[C@@]2(NS(C)(=O)=O)CC1=O [18-1, 3β-O-(3′,3′-Dimethylsuccinyl)-17β-methylsulfonylamino-21-oxolup-18-ene] | < 199
31 | CC(C)C1=C2C3CCC4[C@@]5(C)CC[C@H](OC(=O)CC(C)(C)C(=O)O)C(C)(C)C5CC[C@@]4(C)[C@]3(C)CC[C@@]2(NC(=O)c2cncnc2)CC1=O (stereo partly drawn) [19-23, 3β-O-(3′,3′-Dimethylsuccinyl)-17β-(pyrimidine-5-amido)-21-oxolup-18-ene] | < 199
